From patent US6927233B1, “5ht2 agonists for controlling IOP and treating glaucoma” (Alcon, Inc., priority 2000, dated 2005)

Tested on: lasered monkey model of ocular hypertension
Assay: IOP response in the lasered monkey model of ocular hypertension
Assay type: in vivo, cynomolgus monkeys
Details: for IOP Response % Change, 1 hr / IOP decrease from baseline (mmHg) / IOP Response % Change, 3 hr / IOP Response % Change, 6 hr: 300 μg topical, one 30 μL aliquot to right (lasered) eye, change from baseline IOP; for effect on IOP (in words): dosed at 300 μg, lasered monkey model of ocular hypertension
Description: Intraocular pressure was determined with an Alcon Pneumatonometer after light corneal anesthesia with 0.1% proparacaine. Eyes were washed with saline after-each measurement. After a baseline IOP measurement, test compound was instilled in one 30 μL aliquot to the right eyes only of nine cynomolgus monkeys. Vehicle was instilled in the right eyes of six additional animals. Subsequent IOP measurements were taken at 1, 3, and 6 hours. A compound is considered efficacious in this model of ocular hypertension if there is a decrease in the baseline IOP of the lasered eye (O.D.) of at least 20% following topical administration.

SMILES	IOP Response % Change, 1 hr (1 hr after dosing) [%]	IOP decrease from baseline (mmHg) (1 hr after dosing)	IOP Response % Change, 3 hr (3 hr after dosing) [%]	IOP decrease from baseline (mmHg) (3 hr after dosing)	IOP Response % Change, 6 hr (6 hr after dosing) [%]	IOP decrease from baseline (mmHg) (6 hr after dosing)	effect on IOP (in words)
CC(N)Cn1ncc2ccc(O)cc21 (single isomer, unassigned; isomer 1) [S-(+)-isomer, 1-(2-aminopropyl)-indazol-6-ol]	−15.0	6.4	−35.3	14.8	−40.8	17.1	significant decrease in IOP
CC(N)Cn1ncc2ccc(O)cc21 (centres unmarked) [Compound, 1-(2-aminopropyl)-indazol-6-ol]	−17.6	7.3	−28.1	11.8	−33.8	14.6	significant decrease in IOP
